# Assay results taken from patent US11932636B2, “RAD51 inhibitors” (Cyteir Therapeutics, Inc., priority 2019, dated 2024).
# System: Daudi cells (AID positive)
# Test: Compound primary screening: cell death in AID positive Daudi cells (Cell-Titer Glo, Day 7)
# Format: cell-based
# Conditions: Homo sapiens, 168 h; Daudi cells, AID positive; cell death on Day 7, Cell-Titer Glo; read-out: Cellular activity in AID + (Daudi)
# In short: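 AID-positive Daudi cells were seeded at 1250 cells per well and treated with serially diluted compound delivered from a DMSO/media master plate. Cultures were incubated at 37 °C, and cell death was measured on Day 7 with Cell-Titer Glo luminescence.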
row,Structure (SMILES),EC50 [nM]
1,"CC(C)OC(=O)N[C@H]1CC[C@H](c2ncc(-c3ccc(-c4cnn(CC(F)(F)F)c4)cc3S(=O)(=O)NC(C)(C)C)s2)CC1 [Compound 4, isopropyl (trans-4-(5-(2-(N-(tert-butyl)sulfamoyl)-4-(1-(2,2,2-trifluoroethyl)-1H-pyrazol-4-yl)phenyl)thiazol-2-yl)cyclohexyl)carbamate]",100 to 1000
2,"CC(C)OC(=O)N[C@H]1CC[C@H](c2ncc(-c3ccc(-c4ccc(O)nc4)cc3S(=O)(=O)NC(C)(C)C)s2)CC1 [Compound 7, isopropyl (trans-4-(5-(2-(N-(tert-butyl)sulfamoyl)-4-(6-hydroxypyridin-3-yl)phenyl)thiazol-2-yl)cyclohexyl)carbamate]",1000 to 10000
3,"CCNS(=O)(=O)c1cc(Nc2cccc(C(C)C)n2)ccc1-c1cnc([C@H]2CC[C@H](NC(=O)OC(C)C)CC2)s1 [Compound 112, isopropyl trans-N-[4-[5-[2-(ethylsulfamoyl)-4-[(6-isopropyl-2-pyridyl)amino]phenyl]thiazol-2-yl]cyclohexyl]carbamate]",< 100
4,"CCNS(=O)(=O)c1cc(Nc2ncc(C(C)C)[nH]2)ccc1-c1cnc([C@H]2CC[C@H](NC(=O)OC(C)C)CC2)s1 [Compound 142, isopropyl trans-N-[4-[5-[2-(ethylsulfamoyl)-4-[(5-isopropyl-1H-imidazol-2-yl)amino]phenyl]thiazol-2-yl]cyclohexyl]carbamate]",1000 to 10000
5,"CCNS(=O)(=O)c1cc(Nc2nccn2C)ccc1-c1cnc([C@H]2CC[C@@H](NC(=O)OC(C)C)CC2)s1 [Compound 106, isopropyl cis-N-[4-[5-[2-(ethylsulfamoyl)-4-[(1-methylimidazol-2-yl)amino]phenyl]thiazol-2-yl]cyclohexyl]carbamate]",< 100
6,"CCNS(=O)(=O)c1cc(Nc2cn[nH]c2)ccc1-c1cnc([C@H]2CC[C@H](NC(=O)OC)CC2)s1 [Compound 166, methyl trans-N-[4-[5-[2-(ethylsulfamoyl)-4-[(1H-pyrazol-4-yl)amino]phenyl]thiazol-2-yl]cyclohexyl]carbamate]",1000 to 10000
7,"CCNS(=O)(=O)c1cc(CC(=O)N2CC(O)C2)ccc1-c1cnc([C@H]2CC[C@H](NC(=O)OC(C)C)CC2)s1 [Compound 85, isopropyl trans-N-[4-[5-[4-[2-oxo-2-(3-hydroxyazetidin-1-yl)ethyl]-2-(ethyl-sulfamoyl)phenyl]thiazol-2-yl]cyclohexyl]carbamate]",100 to 1000
8,"CCNS(=O)(=O)c1cc(Nc2cnc(C(C)C)cn2)ccc1-c1cnc([C@H]2CC[C@H](NC(=O)OC(C)C)CC2)s1 [Compound 163, isopropyl trans-N-[4-[5-[2-(ethylsulfamoyl)-4-[(5-isopropylpyrazin-2-yl)amino]phenyl]thiazol-2-yl]cyclohexyl]carbamate]",100 to 1000
